The target of experiment [1] is T1, Poly(ADP-ribose) synthetase (Bos taurus, UniProt P18493).
T1 construct: Poly (ADP-ribose) synthetase from calf thymus; from tissue; host or cells: calf thymus
The experiment can be described thus: Inhibition of Poly(ADP-ribose) synthetase. The format is biochemical, calf.
Description: The enzyme assay is performed by placing the following in small glass tubes kept at 4°: 100 μl of buffer consisting of 0.5M Tris-HCl pH 8.0, 50 mM MgCl2, and 5 mM dithiothreitol; 50 μl of 1 mM [^3 H]nicotinamide adenine dinucleotide having a specific activity of 15 μCi/μmol; 100 μl of calf thymus DNA (0.3 mg/ml in water); 50 μl of calf thymus histone (Sigma, Type IIA, 0.5 mg/ml); 50 μl of inhibitor or inhibitor solvent; 150 μl of enzyme. The components are thoroughly mixed and warmed to 30° C. in a water bath. After 15 minutes the reaction is stopped by adding 2 ml of ice cold 15% trichloroacetic acid and the tubes are placed on ice for 15 minutes. The precipitate is collected on glass fiber filters and washed five times with ice cold 15% trichloroacetic acid. The filters were dried and radioactivity determined in a liquid scintillation counter.

Experiment [2] concerns L1210 cells. The experiment can be described thus: Inhibition of the repair of radiation-induced DNA damage as assessed by alkaline elution. The conditions noted are these: L1210 cells, 10 Gy x-rays, class symbols. The format is cell-based. As to the method: Inhibition of the Repair of Radiation-Induced DNA Damage as Assessed by Alkaline Elution The basic alkaline elution assay is carried out according to the procedure of K. W. Kohn, […]. Erickson, and L. A. Zwelling in DNA Repair: A Laboratory Manual of Research Procedures (eds. E. C. Freidburg and […]) with slight modifications. Briefly, suspension cultures of exponentially growing L1210 cells (total of 4×10^6 cells) are labeled with 0.02 μCi/ml of [^14 C] thymidine plus 1 nmol/ml of unlabeled thymidine for 24 hours prior to use. L1210 cells used as an internal standard are grown in media supplemented with 0.1 μCi/ml of [^3 H]thymidine and 1 nmol/ml unlabeled thymidine. For the elution protocol cells are removed from the culture flasks, centrifuged, and resuspended in fresh media. Drug treatment for experimental cells is for one hour at 37°. After the treatment period control and drug-treated cells are given a dose of 10 Gy of x-rays and incubated at 37° C. for 10 minutes to allow for repair. Samples consisting of 5×10^5 cells contained in 5 ml of ice cold PBS are deposited directly on 25 mm polycarbonate filters (2 micron pore size). The cells are washed with 5 ml of cold PBS, then lysed by the addition of 5 ml of lysis solution (0.2% SDS, 0.25M tetrasodium EDTA pH 9.7). All procedures commencing at the time of lysis are carried out in the dark. Subsequent to lysis samples are treated with 2 ml of lysis solution containing proteinase-K (0.5 mg/ml) for one hour. The filters are then eluted with tetrapropyl ammonium hydroxide/0.025M EDTA (free acid form)/0.1% SDS, pH 12.1, at a constant flow rate of 0.037 ml/min. Fractions of 2 ml are collected in scintillation vials. […] To each fraction collected and the filter solution 15 ml of modified Ready-Gel scintillation fluid containing 0.7% acetic acid is added. The frequency of single-stranded DNA breakage was calculated as described by Kohn, et al. The data is corrected for the number of single-strand breaks in the […] samples (~20%).

Experiment [3] has as its system KHT fibrosarcoma tumors. Description: In vivo assay for radiosensitization activity. More on the design: species or system hybrid mice (B6C3F1). The conditions noted are these: KHT tumors in mice, relative to misonidazole. How it is done:
In Vivo Assay for Radiosensitization Activity
For this assay KHT fibrosarcoma tumors in hybrid mice (B6C3F1) weighing 20-25 g are used. The mice are randomized and implanted SC with the appropriate tumor brei on Day 0 (one implant/mouse). Samples from each donor tumor and/or from the final brei are incubated in thioglycolate media as a check for gross bacterial contamination. On Day 8 tumors are measured in two dimensions with calipers and animals with tumor masses in the range of 500 to 700 mg are selected for the assay. At this point the tumors contain approximately 20% hypoxic cells.
The test agents are dissolved in any of several vehicles at a fixed injection dose equal to 90-100% of the maximum tolerated dose. Additional suitable controls of test compound (no irradiation) and vehicle-injected and irradiated mice are also included. Mice are irradiated at a dose of 1700 RADs at various intervals both prior to and after intraperitoneal administration of the test agents.
By using these intervals, an indication of both the optimum time to irradiate and the degree of sensitization are obtained. Irradiation of the KHT tumors is by whole body irradiation of animals in movement restricting jigs at different total exposures as indicated. The x-ray source is a Phillips 320 KV instrument with a half-value thickness of 2.0 mm copper and a target to source distance of 17 inches, with a delivery rate of 2.0 Gy/minute. Animals are monitored for signs of acute toxicity after treatment.
After incubation for 12-16 days at 37° and staining, the colonies are counted. The data are expressed as % control versus time.

For experiment [4], the system named is V79 cells. Description: In vitro radiosensitizing activity at 37°: shoulder modifying effects (reduction in Dq). In kind it is cell-based. Conditions: hypoxic V79 cells, class symbols. As to the method: The shoulder region represents the inherent repair capabilities of a given cell line. […] To determine the hypoxic x-ray dose response, cells are rendered hypoxic four hours prior to the addition of the test compound by placing them in a 37° C. incubator within an anaerobic glove chamber (Forma). […] Drug is added (0.1 ml into 2 ml media in petri dish) within the anaerobic chamber and drug treatment is at the highest nontoxic dose for one hour at 37°. The oxic x-ray dose response is determined in a similar manner except that all manipulations are carried out in air. […] Cytotoxicity controls (drug only, no irradiation) are included as well as oxic and hypoxic untreated controls (irradiation only, no drug). Immediately following irradiation, cells are rinsed twice with 2 ml fresh media prior to the addition of 5 ml of fresh media. The cells are then incubated at 37° C. After six days, dishes are stained with crystal violet and colonies of 50 or more cells are counted to determine percent surviving cells versus x-ray dose. […] This is expressed by percent reduction in Dq where Dq is defined as the dose at the intersection of the regression line for the logarithmic portion of the survival curve with the 100% survival level. This is taken to represent the width of the shoulder region of the survival curve.

The mark [5] stands for this setting: 30° C., 15 minutes, [3H]NAD, read-out: IC50.

The structures appear in SMILES notation. Counter-ions that a name gives are not always drawn. Like-named read-outs stand apart in the source and are kept apart here.

T1 sequence (P18493 whole entry): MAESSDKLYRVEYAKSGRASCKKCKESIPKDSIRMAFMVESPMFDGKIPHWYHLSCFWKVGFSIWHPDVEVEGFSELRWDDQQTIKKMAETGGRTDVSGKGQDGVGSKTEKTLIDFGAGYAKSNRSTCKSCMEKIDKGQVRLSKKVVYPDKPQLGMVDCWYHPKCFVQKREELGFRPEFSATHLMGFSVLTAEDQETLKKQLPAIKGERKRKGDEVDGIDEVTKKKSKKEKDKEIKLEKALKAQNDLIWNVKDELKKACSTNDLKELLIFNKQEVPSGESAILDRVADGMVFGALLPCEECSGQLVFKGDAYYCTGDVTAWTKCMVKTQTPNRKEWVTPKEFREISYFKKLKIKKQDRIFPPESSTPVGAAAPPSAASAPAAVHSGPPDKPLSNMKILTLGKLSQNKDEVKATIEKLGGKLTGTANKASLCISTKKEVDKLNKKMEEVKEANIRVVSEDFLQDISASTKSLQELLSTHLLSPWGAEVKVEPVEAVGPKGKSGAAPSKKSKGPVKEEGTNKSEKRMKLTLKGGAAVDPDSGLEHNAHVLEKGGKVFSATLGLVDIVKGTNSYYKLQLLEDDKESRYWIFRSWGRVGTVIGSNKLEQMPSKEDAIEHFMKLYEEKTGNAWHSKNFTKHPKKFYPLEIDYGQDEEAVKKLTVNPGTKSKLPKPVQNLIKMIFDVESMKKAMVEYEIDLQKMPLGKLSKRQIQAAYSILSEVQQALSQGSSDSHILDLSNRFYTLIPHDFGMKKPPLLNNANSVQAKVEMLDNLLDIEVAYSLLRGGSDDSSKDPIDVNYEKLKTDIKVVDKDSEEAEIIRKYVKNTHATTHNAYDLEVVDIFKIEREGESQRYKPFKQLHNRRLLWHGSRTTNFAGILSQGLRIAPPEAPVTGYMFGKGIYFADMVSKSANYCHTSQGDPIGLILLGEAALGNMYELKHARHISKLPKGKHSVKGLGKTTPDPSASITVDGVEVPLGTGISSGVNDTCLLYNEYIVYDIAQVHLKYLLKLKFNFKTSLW

For the molecule `Oc1cccc2c(O)nccc12` [Example I, 1,5-Dihydroxyisoquinoline], the IC50 – broadly, the concentration that inhibits the measured activity by half – in experiment [1] (setting [5]) was determined as 140 nM. Besides, in experiment [2], the “Frequency of Unrepaired Strand Breaks” value is reported as “+ (101-200)”. Further, in experiment [3], the “In Vivo Radiosensitizing Activity” value was “+”. Further, the “Shoulder Modification (% Reduction in DQ)” value in experiment [4] was “- (1-14%)”.
Regarding `O=C1NCCc2c(OCC(O)CN3CCCCC3)cccc21` (centres unmarked) [Example IV, 3,4-Dihydro-5-[2-hydroxy-3-(1-piperidinyl)propoxy]-1(2H)-isoquinolinone], in experiment [1] (setting [5]), the 50% inhibitory concentration (IC50) was 320 nM. Also, the “Shoulder Modification (% Reduction in DQ)” value in experiment [4] is “+++ (≥45%)”.
`COc1cccc2c1CCNC2=O` [Example V, 3,4-Dihydro-5-methoxy-1(2H)-isoquinolinone]: the IC50 in experiment [1] (setting [5]) was found to be 420 nM.
For the molecule `CC(=O)Oc1cccc2c1CCNC2=O` [Example VI, 5-(Acetyloxy)-3,4-dihydro-1(2H)-isoquinolinone], in experiment [1] (setting [5]), the IC50 was determined as 2110 nM.
`O=C1NCCc2c(OCc3ccccc3)cccc21` [Example VII, 3,4-Dihydro-5-(phenylmethoxy)-1(2H)-isoquinolinone]: the half-maximal inhibitory concentration (IC50) in experiment [1] (setting [5]) turned out to be 5200 nM.
As for `Nc1cccc2c(=O)[nH]ccc12` [Example VIII, 5-Amino-1(2H)-isoquinolinone], in experiment [1] (setting [5]), the IC50 came to 240 nM. Further, the “Shoulder Modification (% Reduction in DQ)” value in experiment [4] is “- (1-14%)”.
As to `O=C1NCCc2c(NCc3ccccc3)cccc21` [Example X, 3,4-Dihydro-5-[(phenylmethyl)amino]-1(2H)-isoquinolinone], the IC50 in experiment [1] (setting [5]) came out at 2550 nM.
Same read-out and setting: next, `CC(=O)Nc1cccc2c1CCNC2=O` [Example XI, N-(1,2,3,4-Tetrahydro-1-oxo-5-isoquinolinyl)acetamide]: 56700 nM; `O=C1NCCc2c(OCC(O)Cc3ccccc3)cccc21` (centres unmarked) [Example XL, 3,4-Dihydro-5-(2-hydroxy-3-phenylpropoxy)-1(2H)-isoquinolinone]: 340 nM.
In the case of `COc1cccc2c(=O)[nH]c(-c3ccccc3)cc12` [Example XX, 5-Methoxy-3-phenyl-1(2H)-isoquinolinone], in experiment [1] (setting [5]), the half-inhibitory concentration (IC50) amounted to 2120 nM.
Turning to `Nc1c[nH]c(=O)c2ccccc12` [Example XXV, 4-Amino-1(2H)-isoquinolinone monohydrochloride], the IC50 in experiment [1] (setting [5]) worked out at 660 nM.
Still for that read-out and setting: next, `O=c1[nH]cc(Br)c2c(O)cccc12` [Example XXVI, 4-Bromo-5-hydroxy-1(2H)-isoquinolinone]: 61 nM; `O=C1NCCc2c(OCCCN3CCCCC3)cccc21` [Example XXVII, 3,4-Dihydro-5-[3-(1-piperidinyl)propoxy]-1(2H)-isoquinolinone]: 830 nM.
Turning to `Cl.Nc1cccc2c1CCNC2=O` [IX, 5-Amino-3,4-dihydro-1(2H)-isoquinolinone, monohydrochloride], the IC50 in experiment [1] (setting [5]) came out at 410 nM. Also, in experiment [2], the “Frequency of Unrepaired Strand Breaks” value was “+++ (301-400)”. Besides, the “Shoulder Modification (% Reduction in DQ)” value in experiment [4] was “- (1-14%)”.
Consider `O=C1NCCc2c(OC[C@@H](O)CN3CCCCC3)cccc21` [L, (S)-3,4-Dihydro-5-[2-hydroxy-3-(1-piperidinyl)propoxy]-1(2H)-isoquinolinone], for which the IC50 in experiment [1] (setting [5]) was 270 nM.
`CN(C)COc1cccc2c1CCNC2=O` [XIII]: the IC50 in experiment [1] (setting [5]) was found to be 970 nM.
On the same count and under the same terms, next, `COc1cccc2c(=O)[nH]ccc12` [XIV, 5-Methoxy-1(2H)-isoquinolinone]: 580 nM.
For the molecule `CSC1=NCCc2c(C)cccc21` [XIX, 3,4-Dihydro-5-methyl-1-(methylthio)-isoquinoline], in experiment [1] (setting [5]), the IC50 came to 1550 nM.
Still for that read-out and setting: next, `O=C1NCCc2c(OCCc3ccccc3)cccc21` [XLI, 3,4-Dihydro-5-(phenylethoxy)-1(2H)-isoquinolinone]: 600 nM.
For the molecule `COc1cccc2c(=O)[nH]nc(C)c12` [XLII, 5-Methoxy-4-methyl-1(2H)phthalazinone], the IC50 in experiment [1] (setting [5]) worked out at 80 nM.
Turning to `O=C1NCCc2c(OC[C@H](O)CN3CCCCC3)cccc21` [XLIX, (R)-3,4-Dihydro-5-[2-hydroxy-3-(1-piperidinyl)propoxy]-1(2H)-isoquinolinone], in experiment [1] (setting [5]), the IC50 came to 330 nM.
Regarding `CCc1cccc2c1CCNC2=O` [XV, 5-Ethyl-3,4-dihydro-1(2H)-isoquinolinone], the IC50 in experiment [1] (setting [5]) amounted to 1000 nM. Moreover, in experiment [2], the “Frequency of Unrepaired Strand Breaks” value is “+ (101-200)”. Moreover, the “Shoulder Modification (% Reduction in DQ)” value in experiment [4] is reported as “- (1-14%)”.
Turning to `O=C1NCCc2c(Cl)cccc21` [XVI, 5-Chloro-3,4-dihydro-1(2H)-isoquinolinone], the IC50 in experiment [1] (setting [5]) is 310 nM.
As to `COc1cccc2c1CCN=C2SC` [XVII, 3,4-Dihydro-5-methoxy-1-(methylthio)-isoquinoline], the concentration for half-maximal inhibition (IC50) in experiment [1] (setting [5]) worked out at 580 nM.
As for `Cc1cccc2c1CC(C)NC2=O` (centres unmarked) [XVIII, 3,4-Dihydro-3,5-dimethyl-1(2H)-isoquinolinone], in experiment [1] (setting [5]), the 50% inhibitory concentration (IC50) worked out at 740 nM.
Still for that read-out and setting: next, `Oc1ncc(Br)c2ccccc12` [XXIII, 4-Bromo-1-isoquinolinol]: 360 nM; `O=C1NCCc2c(OCC(O)CN3CCOCC3)cccc21` (centres unmarked) [XXIX]: 1500 nM; `O=C1NCCc2c(OCC(O)CN3CCCC3)cccc21` (centres unmarked) [XXVIII, 3,4-Dihydro-5-[2-hydroxy-3-(1-pyrrolidinyl)propoxy]-1-(2H)-isoquinolinone]: 770 nM.
Still for that read-out and setting: next, `CNCC(O)COc1cccc2c1CCNC2=O` (centres unmarked) [XXXI, 3,4-Dihydro-5-[2-hydroxy-3-(methylamino)propoxy]-1(2H)-isoquinolinone]: 200 nM; `CNCCCOc1cccc2c1CCNC2=O` [XXXII, 3,4-Dihydro-5-[3-methylamino)propoxy]-1(2H)-isoquinolinone hydrochloride]: 330 nM; `O=C1NCCc2c(OCCN3CCCCC3)cccc21` [XXXIII, 3,4-Dihydro-5-[2-(1-piperidinyl)ethoxy]-1(2H)-isoquinolinone]: 820 nM.
As to `O=C1NCCc2c(OCCCCN3CCCCC3)cccc21` [XXXIV, 3,4-Dihydro-5-[4-(1-piperidinyl)butoxy]-1(2H)-isoquinolinone], the IC50 in experiment [1] was determined as 800 nM.
For the molecule `O=C1NCCc2c(OCC(O)COc3ccccc3)cccc21` (centres unmarked) [XXXIX, 3,4-Dihydro-5-(2-hydroxy-3-phenoxypropoxy)-1(2H)-isoquinolinone], the IC50 in experiment [1] (setting [5]) came out at 650 nM.
On the same count and under the same terms, for `CCOc1cccc2c1CCNC2=O` [XXXV, 5-Ethoxy-3,4-dihydro-1(2H)-isoquinolinone] the value was 2600 nM; for `CCCOc1cccc2c1CCNC2=O` [XXXVI, 3,4-Dihydro-5-propoxy-1(2H)-isoquinolinone], 110 nM; for `CCCCOc1cccc2c1CCNC2=O` [XXXVII, 5-Butoxy-3,4-dihydro-1(2H)-isoquinolinone], 6000 nM.
Same read-out and setting: for `COCC(O)COc1cccc2c1CCNC2=O` (centres unmarked) [XXXVIII, 3,4-Dihydro-5-(2-hydroxy-3-methoxypropoxy)-1(2H)-isoquinolinone] the value was 1500 nM; for `CCN(CC)CC(O)COc1cccc2c1CCNC2=O` (centres unmarked) [XXX], 1000 nM.

(Values after patent US5177075A, “Substituted dihydroisoquinolinones and related compounds as potentiators of the lethal effects of radiation and certain chemotherapeutic agents; selected compounds, analogs and process” (priority 1991, dated 1993).)
